Experimental data taken from the NIST ThermoML archive (doi:10.1016/j.fluid.2010.10.022).

Test: excess molar enthalpy (molar enthalpy of mixing); xn = mol fraction of the nth substance listed
Conditions: 298.15 K, 101 kPa, Liquid, Flow calorimetry

C#CCCCC [1-hexyne] + CCCOC(C)=O
Conditions | excess molar enthalpy [kcal/mol]
x2 = 0.1079 | -0.0304
x2 = 0.1967 | -0.0477
x2 = 0.3032 | -0.0608
x2 = 0.395 | -0.066
x2 = 0.4373 | -0.0664
x2 = 0.5003 | -0.0654
x2 = 0.595 | -0.0605
x2 = 0.6575 | -0.0553
x2 = 0.6989 | -0.0511
x2 = 0.7967 | -0.038
x2 = 0.8992 | -0.0205

CC#CCCC [2-hexyne] + CCCOC(C)=O
Conditions | excess molar enthalpy [kcal/mol]
x2 = 0.1094 | 0.0106
x2 = 0.204 | 0.0174
x2 = 0.3153 | 0.022
x2 = 0.4179 | 0.0249
x2 = 0.5044 | 0.0245
x2 = 0.5938 | 0.0215
x2 = 0.7075 | 0.0157
x2 = 0.7983 | 0.0108
x2 = 0.8927 | 0.00645

CCC#CCC [3-hexyne] + CCCOC(C)=O
Conditions | excess molar enthalpy [kcal/mol]
x2 = 0.0968 | 0.0105
x2 = 0.202 | 0.0186
x2 = 0.3025 | 0.0269
x2 = 0.4063 | 0.0341
x2 = 0.4979 | 0.0377
x2 = 0.5956 | 0.0353
x2 = 0.7045 | 0.0267
x2 = 0.7995 | 0.0182
x2 = 0.8928 | 0.0101
